Where “and” joins values, the source holds several entries; their conditions need not be identical. Identical values can stand only once. No end group written: not given here.

This experiment has as its system sperm from regions of salmon testes. As to the kind of experiment: Motility of sperm from regions of salmon testes after hormone treatment. The conditions noted are these: regions C of testes of male salmon caught in a river in October; treated with different types of hormones. The format is cell-based. As to the method: The immature testicular regions A, B, and C are ground and diluted with an artificial seminal plasma. The grinding is performed by the following procedure. First, the testes are cut into small pieces with scissors such that the membranes surrounding the spermatids of the testes are peeled off. […] Here, care should be taken because a high speed of the impeller causes cell disruption, increasing the possibility that impurities may increase. Immature regions (except for regions D where semen leaks out, see FIG. 4) were collected by cutting the testes of male salmon. […] Regions C of the testes of male salmon caught in a river in October were treated with three different types of hormones: hGC, luteinizing hormone-releasing hormone (LhRH), and DHP.

On to “luteinizing hormone-releasing hormone (QHWSYGLRPG; ends and bridges not checked; UniProt P01148 24-33, looked up) [LhRH, hormone used for comparison with hCG]”, for which the “Sperm motility (%)” value was 5% and 5 ± 2.8%.

Values taken from patent US20220073553A1, “METHOD FOR EXTRACTING HIGH-PURITY POLYDEOXYRIBONUCLEOTIDE FROM SALMON TESTES” (Bio Medi pharm Co. Ltd., priority 2020, published 2022).
